Source: patent publication US10087156B2, “Methods and compositions related to retinoid receptor-selective pathway” (Sanford Burnham Prebys Medical Discovery Institute, priority 2010, dated 2018)
“Also recorded” adds a separate entry of the source.

Key:
[1] = system: ZR-75-1 cells; assay: PARP cleavage with TNFα by immunoblotting; type: cell-based, human; details: K-80003 50 μM, Sulindac 75 μM, 6 hr
Experimental: ZR-75-1 cells were treated with TNFα and/or Sulindac (75 μM) or K-80003 (50 μM) for 6 hr and analyzed by immunoblotting.

[2] = target: T1, interaction of p85α with RXRα/Δ80 (Homo sapiens, UniProt P19793); assay: Co-immunoprecipitation of Flag-p85α and Myc-RXRα/Δ80 in A549 cells; type: cell-based; details: 50 μM, with or without TNFα
T1 construct: expressed in transfected cells; host or cells: A549 human lung cancer cells
T1 sequence (P19793 81-462 limits assumed, stated change not applied): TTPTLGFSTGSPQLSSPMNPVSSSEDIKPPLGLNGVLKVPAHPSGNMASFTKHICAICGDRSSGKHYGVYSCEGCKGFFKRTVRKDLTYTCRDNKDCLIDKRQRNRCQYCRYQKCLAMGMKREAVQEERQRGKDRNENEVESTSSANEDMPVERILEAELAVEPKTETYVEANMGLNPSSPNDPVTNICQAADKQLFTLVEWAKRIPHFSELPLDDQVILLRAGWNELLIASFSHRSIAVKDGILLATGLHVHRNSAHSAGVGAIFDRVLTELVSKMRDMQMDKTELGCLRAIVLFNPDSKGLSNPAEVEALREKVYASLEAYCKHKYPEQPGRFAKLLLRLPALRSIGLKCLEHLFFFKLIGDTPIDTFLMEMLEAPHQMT
Experimental: Caco-2 and MEF cells were treated with the indicated concentration of Sulindac or K-80003 for 30 min, then stimulated with all-trans-RA (10^-7 M) for 15 min. AKT activation was analyzed by immunoblotting. PC3 cells transfected with RXRα or RARγ siRNA were pre-treated with K-80003 (50 μM) for 1 hr before exposed to TNFα (10 ng/ml) for 30 min (pRXRα: phosphorylated RXRα). A549 cells were transfected with Flag-p85α and Myc-RXRα/[…], treated with Sulindac (50 μM) or K-80003 (50 μM) for 1 hr, exposed to TNFα for 30 min, and analyzed by coimmunoprecipitation using an anti-Flag antibody. […] (FIG. 8C). Reducing RXRα expression by siRNA largely impaired the inhibitory effect of K-80003 on AKT activation in PC3 cells. […] Thus, inhibition of AKT activation by K-80003 was also dependent on RXRα expression (FIG. 8B). For the CoIP assay, cells or cells transfected with indicated expression vectors were suspended in lysis buffer (50 mM Tris-HCl, pH 7.4; 150 mM NaCl; 20 mM EDTA; 1% NP-40; 1 mM PMSF; […] Leupeptin; […] Aprotinin; 0.1 mM Na3VO4; and 1 mM DTT). […] Immunoreactive products were detected by chemiluminescence with an enhanced chemiluminescence system (ECLTM) (Amersham Biosciences, Amersham, UK).

[3] = system: MCF-7 breast tumor; assay: MCF-7 breast tumor growth, oral administration; type: in vivo; details: mice, 15, 30, 60 mg/kg by gavage once daily, 20 days
Experimental: The growth inhibitory effect of oral administration of K-80003 on MCF-7 breast tumor tissue grown in mice was investigated. K-80003 was dissolved in NaHCO3 (pH 8.0). Mice with MCF-7 breast tumor tissue were administered 15 mg/kg K-80003, 30 mg/kg K-80003, 60 mg/kg K-80003, or a control in 100 ul total volume by gavage once daily.

[4] = system: cancer; assay: Preventing cancer in a human patient; type: in vivo; details: 150 mg tablet twice daily
Experimental: A human patient with an elevated risk of developing cancer relative to the general population is identified and instructed to take a 150 mg tablet containing the active ingredient K-80003 twice daily.

[5] = Preclinical toxicity study; type: in vivo
Experimental: Preclinical studies of K-80003 were performed, including the investigation of toxicity, bioavailability, and pharmacokinetics.

[6] = system: prostaglandin E2 (PGE2) production; assay: PGE2 production in A549 cells; type: cell-based, human
Experimental: A549 cells were seeded in 24-well plates in DMEM with 10% fetal bovine serum. After overnight culture, cells were stimulated with 10 ng/ml IL-1β in DMEM medium without serum for 24 hr. After 10 min pretreatment with the indicated concentrations of Sulindac or analog, cells were co-treated with 10 μM arachidonic acid and Sulindac or its analog for 30 min at 37° C. Medium was collected and immediately assayed. PGE2 production was measured with Prostaglandin E2 EIA Kit-Monoclonal according to the manufacturer's instructions (Cayman Chemical, Ann Arbor, Mich.). PGE2 production (%) is expressed as the ratio of PGE2 produced in the presence of compound to that with vehicle alone.

[7] = target: T2, RXRα/PPARγ heterodimer (Homo sapiens, UniProt P19793); assay: DR1 tk-CAT reporter assay in CV-1 cells; type: cell-based; details: ciglitazone 10^−6 M
T2 construct: expressed in transfected cells; host or cells: CV-1 green monkey kidney cells
T2 sequence (P19793 whole entry): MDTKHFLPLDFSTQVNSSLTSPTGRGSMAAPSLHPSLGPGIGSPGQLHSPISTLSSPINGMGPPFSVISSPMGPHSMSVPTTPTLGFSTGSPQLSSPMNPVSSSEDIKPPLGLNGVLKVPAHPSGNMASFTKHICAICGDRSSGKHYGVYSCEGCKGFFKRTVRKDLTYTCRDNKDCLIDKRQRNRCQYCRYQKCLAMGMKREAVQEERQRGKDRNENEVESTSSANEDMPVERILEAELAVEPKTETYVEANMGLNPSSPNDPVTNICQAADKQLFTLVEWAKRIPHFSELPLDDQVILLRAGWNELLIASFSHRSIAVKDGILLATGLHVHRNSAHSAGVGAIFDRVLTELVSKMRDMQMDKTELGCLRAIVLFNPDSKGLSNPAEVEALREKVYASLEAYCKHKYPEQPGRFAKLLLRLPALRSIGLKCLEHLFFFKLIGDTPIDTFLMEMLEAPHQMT
T2 sequence (P37231 whole entry partner): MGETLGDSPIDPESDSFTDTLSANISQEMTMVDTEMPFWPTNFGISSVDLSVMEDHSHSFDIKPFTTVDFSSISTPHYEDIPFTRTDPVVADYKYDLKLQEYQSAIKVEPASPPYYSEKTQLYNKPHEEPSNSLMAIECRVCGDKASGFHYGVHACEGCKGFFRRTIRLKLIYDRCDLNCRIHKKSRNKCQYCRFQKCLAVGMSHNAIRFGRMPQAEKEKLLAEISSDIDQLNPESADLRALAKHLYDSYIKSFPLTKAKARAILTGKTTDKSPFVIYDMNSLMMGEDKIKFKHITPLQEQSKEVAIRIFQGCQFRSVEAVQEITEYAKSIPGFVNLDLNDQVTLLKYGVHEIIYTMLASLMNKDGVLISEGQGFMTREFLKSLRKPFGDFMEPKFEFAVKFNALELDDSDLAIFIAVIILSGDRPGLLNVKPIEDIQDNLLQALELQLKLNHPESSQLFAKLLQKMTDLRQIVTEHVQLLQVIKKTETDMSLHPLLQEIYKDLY
Experimental: Receptor expression vectors and a reporter gene (TREpal2-tk-CAT for RXRα/TRα heterodimers (FIG. 9C), and DR1 tk-CAT for RXRα/PPARγ heterodimer (FIG. 9B)) were transiently transfected into CV-1 cells. Cells were treated with or without ligands (ciglitazone, 10^−6 M; T3, 10^−7 M) in the presence or absence of Sulindac. CAT activity was determined.
(§1) Cells (1×10^5 cells/well) seeded in 24-well plates were transiently transfected using a modified calcium phosphate precipitation procedure as described (Kolluri, S. K. et al., Proc Natl Acad Sci USA 102 (7), 2525-2530 (2005); Cao, X., et al., Mol Cell Biol 24(22), 9705-9725 (2004)).

[8] = system: c-FLIP; assay: c-FLIP expression by immunoblotting; type: cell-based; details: HepG2, A549 and SW480 cells, 6 hr
Experimental: Cells treated with TNFα and/or Sulindac for 6 hr were analyzed by immunoblotting (FIG. 6I). The expression of c-FLIP, a downstream target gene of AKT signaling, which acts as a potent inhibitor of the extrinsic apoptotic pathway by inhibiting caspase-8 activation, was examined. […] Thus, Sulindac may induce apoptosis by suppressing the inducing effect of TNFα on c-FLIP expression.

[9] = system: COX; details: Haanen, 2001; cited from earlier work
[10] = target: T3, RXRα homodimer and heterodimer (Homo sapiens, UniProt P19793); assay: (TREpal)2-tk-CAT and βRARE-tk-CAT reporter assays in CV-1 cells; type: cell-based; details: SR11237 10^−6 M
T3 construct: expressed in transfected cells; host or cells: CV-1 green monkey kidney cells
T3 sequence (P19793 whole entry, one chain of several): as the sequence (P19793 whole entry) above
Experimental: Nur77 and/or RXRα were transiently transfected into CV-1 cells. Cells were treated with or without SR11237 (10^−6 M), a RXR-selective agonist, in the presence or absence of Sulindac. (TREpal)2-tk-CAT (Zhang et al., Nature 358, 587-591 (1992a)) (FIG. 1E) and βRARE-tk-CAT (Zhang et al., Nature 355, 441-446 (1992b)) (FIG. 1F) CAT activity were determined.
as §1

CC1=C(CC(=O)O)c2cc(F)ccc2/C1=C\c1ccc(C(C)C)cc1 [K-80003, (Z)-2-(3-(4-Iso-propylbenzylidene)-6-fluoro-2-methyl-3H-inden-1-yl)acetic acid]
induction of PARP cleavage together with TNFα, compared with Sulindac [1]: more effective than Sulindac | inhibition of interaction of p85α with RXRα/Δ80 [2]: much more effective than Sulindac; also recorded: potently inhibited | tumor volume compared to control [3]: dose-dependent decrease in tumor volume | development of cancer in patient at elevated risk [4]: does not develop cancer | toxicity [5]: very low toxicity | inhibition of constitutive and TNFα- or IL-1β-induced PGE2 production [6]: failed to inhibit; also recorded: did not inhibit

CSc1ccc(/C=C2/C(C)=C(CC(=O)O)c3cc(F)ccc32)cc1 [Sulindac, (Z)-2-(3-(4-(Methylthio)benzylidene)-6-fluoro-2-methyl-3H-inden-1-yl)acetic acid]
transactivation of RXRα/PPARγ heterodimers (CAT activity) [7]: inhibited transactivation | TNFα induction of c-FLIP (c-FLIPS and c-FLIPL) [8]: inhibited | COX-inhibiting activity [9]: potent COX inhibitor | RXRα homodimer and heterodimer transactivation (CAT activity) [10]: inhibited RXRα homodimer and heterodimer transactivation
